# Columns and labels:
# [1] = target: T1, APJ (Homo sapiens, UniProt P35414); experiment: cell-based
# T1 sequence (P35414 1-380): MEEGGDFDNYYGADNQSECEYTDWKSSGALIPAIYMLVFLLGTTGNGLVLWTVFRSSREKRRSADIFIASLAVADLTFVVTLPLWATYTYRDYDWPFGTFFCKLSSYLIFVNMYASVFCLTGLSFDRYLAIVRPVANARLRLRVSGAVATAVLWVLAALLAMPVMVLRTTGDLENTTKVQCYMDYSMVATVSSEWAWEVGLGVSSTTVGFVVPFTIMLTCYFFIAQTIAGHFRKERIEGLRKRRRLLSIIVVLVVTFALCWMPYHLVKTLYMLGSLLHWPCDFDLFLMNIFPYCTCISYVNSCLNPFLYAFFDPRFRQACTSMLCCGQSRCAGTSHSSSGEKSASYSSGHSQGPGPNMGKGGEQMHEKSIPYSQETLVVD
# [2] = aqueous acetonitrile; data not shown
# [3] = tested on: 29 other GPCRs; experiment: PDSP GPCR binding assay panel: other GPCRs; conditions: listed as ML221
structure (smiles),measurement,setting,value
Cc1ccnc(SCc2cc(=O)c(NC(=O)c3ccc([N+](=O)[O-])cc3)co2)n1 [Entry 67],IC50,[1],12.8 ± 0.35 µM
Cc1ccnc(SCc2cc(=O)c(OC(=O)c3ccc(Cl)c([N+](=O)[O-])c3)co2)n1 [Entry 29],hydrolytic stability of the ester bond (in words),[2],readily hydrolyzed
"O=C(Oc1coc(CSc2ncccn2)cc1=O)c1ccc([N+](=O)[O-])cc1 [Entry 6, 4-oxo-6-((pyrimidin-2-ylthio)methyl)-4H-pyran-3-yl 4-nitrobenzoate]",binding activity against other GPCRs (in words),[3],no significant binding activity

# — PMC3729231 (Bioorganic & medicinal chemistry letters, 2012)
